In brackets after ≈: the same amount, converted by molar mass.
Assays:
Salmonella typhimurium [1] = test: Bactericidal activity against Salmonella typhimurium ATCC 14028 infected in mouse RAW264.7 cells assessed as log reduction in intracellular bacterial load at 50 uM within 3 to 9 hrs in presence of gentamycin; type: functional, Salmonella enterica subsp. enterica serovar Typhimurium
Salmonella typhimurium [2] = test: Bactericidal activity against Salmonella typhimurium ATCC 14028 infected in mouse RAW264.7 cells assessed as log reduction in intracellular bacterial load at 10 uM after 10 hrs in presence of gentamycin; type: functional, Salmonella enterica subsp. enterica serovar Typhimurium
Salmonella typhimurium [3] = test: Antibacterial activity against Salmonella typhimurium ATCC 14028 at pH 7 after 16 to 18 hrs by broth microdilution method; type: functional, Salmonella enterica subsp. enterica serovar Typhimurium; details: Salmonella enterica
Salmonella typhimurium [4] = test: Antibacterial activity against Salmonella typhimurium ATCC 14028 at pH 5 after 16 to 18 hrs by broth microdilution method; type: functional, Salmonella enterica subsp. enterica serovar Typhimurium; details: Salmonella enterica
Salmonella typhimurium [5] = test: Antibacterial activity against Salmonella typhimurium ATCC 14028 assessed as survival at 10 uM after 3 hrs by broth microdilution method; type: functional, Salmonella enterica subsp. enterica serovar Typhimurium
Salmonella typhimurium [6] = test: Bactericidal activity against Salmonella typhimurium ATCC 14028 infected in mouse RAW264.7 cells assessed as log reduction in intracellular bacterial load at 20 uM within 3 to 9 hrs in presence of gentamycin; type: functional, Salmonella enterica subsp. enterica serovar Typhimurium
Salmonella typhimurium [7] = test: Bactericidal activity against Salmonella typhimurium ATCC 14028 at 10 uM within 3 to 9 hrs; type: functional, Salmonella enterica subsp. enterica serovar Typhimurium
[8] = Cytotoxicity against mouse RAW264.7 cells assessed as cell survival at 100 uM after 8 hrs by MTT assay; type: cell-based; details: read-out: Survival
[9] = Drug uptake in mouse RAW264.7 cells at 5 uM using FITC-labeled test compound after 5 hrs by Hoechst 33342/FM 4-64 staining-based confocal microscopic analysis; type: ADME, cell-based; details: raw264.7, 5 h
[10] = Drug uptake in mouse RAW264.7 cells at 5 uM using FITC-labeled test compound after 2 hrs by flow cytometry; type: ADME, cell-based; details: raw264.7, 2 h
[11] = Drug internalization in mouse RAW264.7 cells using FITC-labeled test compound by flow cytometry; type: ADME, cell-based
[12] = Drug uptake in mouse RAW264.7 cells at 5 uM using FITC-labeled test compound after 0.5 hrs by flow cytometry; type: ADME, cell-based; details: raw264.7, 0.5 h
[13] = Drug internalization in mouse RAW264.7 cells at 1 uM using FITC-labeled test compound after 2 hrs by flow cytometry; type: ADME, cell-based; details: raw264.7, 2 h
[14] = Drug internalization in mouse RAW264.7 cells at 1 uM using FITC-labeled test compound after 0.5 hrs by flow cytometry; type: ADME, cell-based; details: raw264.7, 0.5 h
Salmonella typhimurium [15] = test: Bactericidal activity against Salmonella typhimurium ATCC 14028 infected in mouse RAW264.7 cells assessed as log reduction in intracellular bacterial load at 100 uM within 3 to 9 hrs in presence of gentamycin; type: functional, Salmonella enterica subsp. enterica serovar Typhimurium

Row | SMILES | log(activity) (Salmonella typhimurium [1]) | log(activity) (Salmonella typhimurium [2]) | MIC (Salmonella typhimurium [3]) [µM] | MIC (Salmonella typhimurium [4]) [µM] | Survival (Salmonella typhimurium [5]) [×10⁵ CFU/ml] | log(activity) (Salmonella typhimurium [6]) | Activity (Salmonella typhimurium [7]) | viability at 8 h, 100 µM [8] [%] | Drug uptake [9] | Drug uptake [10] [%] | Drug uptake [11] | Drug uptake [12] [%] | Drug uptake [13] [%] | Drug uptake [14] [%] | log(activity) (Salmonella typhimurium [15])
1 | CC(C)[C@@H]1NC(=O)[C@H](C)NC(=O)[C@H](CC(N)=O)NC(=O)[C@H](CCCNC(=N)N)NC(=O)[C@H](Cc2ccc(O)cc2)NC(=O)[C@H](C(C)C)NC(=O)[C@@H]2CSSC[C@H](NC(=O)[C@H](C(C)C)NC(=O)[C@H](CCCNC(=N)N)NC1=O)C(=O)N[C@@H](Cc1cnc[nH]1)C(=O)N[C@@H](CCCNC(=N)N)C(=O)N[C@@H](CCCNC(=N)N)C(=O)N[C@H](C(=O)N[C@@H](CC(N)=O)C(=O)O)CSSC[C@H](NC(=O)[C@H](Cc1ccccc1)NC(=O)[C@H](C)NC(=O)[C@H](CCCNC(=N)N)NC(=O)[C@H](CCCNC(=N)N)NC(=O)[C@H](CCCNC(=N)N)NC(=O)[C@H](CCC(N)=O)NC(=O)[C@H](CCCNC(=N)N)NC(=O)[C@H](CCCNC(=N)N)NC(=O)[C@H](CCCCN)NC(=O)[C@H](CCCCN)NC(=O)[C@H](CCCNC(=N)N)NC(=O)CNC(=O)[C@@H](N)Cc1ccc(O)cc1)C(=O)N[C@@H](Cc1c[nH]c3ccccc13)C(=O)N[C@@H](CC(N)=O)C(=O)N[C@@H](C(C)C)C(=O)N2 | 3.26 | 1.19 | 1.94 (≈ 7.97 µg/mL) | 3.89 (≈ 16 µg/mL) | 1.5 | 1.57 | 48.28 - 98.85% |  |  |  |  |  |  |  | 
2 | CC(C)[C@@H]1NC(=O)[C@H](C)NC(=O)[C@H](CC(N)=O)NC(=O)[C@H](CCCNC(=N)N)NC(=O)[C@H](Cc2ccc(O)cc2)NC(=O)[C@H](C(C)C)NC(=O)[C@@H]2CSSC[C@H](NC(=O)[C@H](C(C)C)NC(=O)[C@H](CCCNC(=N)N)NC1=O)C(=O)N[C@@H](Cc1c[nH]cn1)C(=O)N[C@@H](CCCNC(=N)N)C(=O)N[C@@H](CCCNC(=N)N)C(=O)N[C@H](C(=O)N[C@@H](CC(N)=O)C(=O)O)CSSC[C@H](NC(=O)[C@H](Cc1ccccc1)NC(=O)[C@H](C)N)C(=O)N[C@@H](Cc1c[nH]c3ccccc13)C(=O)N[C@@H](CC(N)=O)C(=O)N[C@@H](C(C)C)C(=O)N2 |  |  |  |  |  |  |  | 103 | Not Active | 93.4 | Dose-dependent effect and Tde | 50 | 31.4 | 17.3 | 
3 | CC(C)[C@@H]1NC(=O)[C@H](C)NC(=O)[C@H](CC(N)=O)NC(=O)[C@H](CCCNC(=N)N)NC(=O)[C@H](Cc2ccc(O)cc2)NC(=O)[C@H](C(C)C)NC(=O)[C@@H]2CSSC[C@H](NC(=O)[C@H](C(C)C)NC(=O)[C@H](CCCNC(=N)N)NC1=O)C(=O)N[C@@H](Cc1cnc[nH]1)C(=O)N[C@@H](CCCNC(=N)N)C(=O)N[C@@H](CCCNC(=N)N)C(=O)N[C@H](C(=O)N[C@@H](CC(N)=O)C(=O)O)CSSC[C@H](NC(=O)[C@H](Cc1ccccc1)NC(=O)[C@H](C)NC(=O)[C@H](CCCNC(=N)N)NC(=O)[C@H](Cc1c[nH]c3ccccc13)NC(=O)[C@H](CCC(N)=O)NC(=O)[C@H](Cc1c[nH]c3ccccc13)NC(=O)[C@H](CCCNC(=N)N)NC(=O)[C@@H](N)CCCNC(=N)N)C(=O)N[C@@H](Cc1c[nH]c3ccccc13)C(=O)N[C@@H](CC(N)=O)C(=O)N[C@@H](C(C)C)C(=O)N2 | 1.63 |  | 2.25 (≈ 7.95 µg/mL) | 9 (≈ 31.8 µg/mL) | 1.9 |  | 34.22 - 91.35% |  |  |  |  |  |  |  | 2.1

Source: ChEMBL document CHEMBL4251646, “Improved antibacterial activity of a marine peptide-N2 against intracellular Salmonella typhimurium by conjugating with cell-penetrating peptides-bLFcin6/Tat11” (Eur J Med Chem, 2018)
